Test results reported in PubChem BioAssay AID256 (DTP/NCI, 2004).
Where “and” joins values, the source holds several entries; their conditions need not be identical. Equal entries are not always repeated. Toxic doses and inconclusive results are not listed. The calls were made as follows: active = survival T/C of 150% or more; inactive = T/C below 125% in these data.

System: CD2F1 mice, L1210 leukemia ip, survival T/C
Assay: NCI In Vivo Anticancer Drug Screen. Data for tumor model L1210 Leukemia (intraperitoneal) in CD2F1 (CDF1) mice
Conditions: higher = longer survival
Procedure, shortened: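 Each value reflects a quotient of treated over vehicle control outcomes in mice with a transplanted tumor.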

[1] = endpoint: mean survival time, dose: 100.0 mg/kg/injection, schedule: Q01DX009 (ip), vehicle: saline with Tween-80
[2] = endpoint: mean survival time, dose: 100.0 mg/kg/injection, schedule: Q04DX003 (ip), vehicle: saline with Tween-80
[3] = endpoint: mean survival time, dose: 200.0 mg/kg/injection, schedule: Q01DX009 (ip), vehicle: saline with Tween-80
[4] = endpoint: mean survival time, dose: 200.0 mg/kg/injection, schedule: Q04DX003 (ip), vehicle: saline with Tween-80
[5] = endpoint: mean survival time, dose: 400.0 mg/kg/injection, schedule: Q01DX009 (ip), vehicle: saline with Tween-80
[6] = endpoint: mean survival time, dose: 400.0 mg/kg/injection, schedule: Q04DX003 (ip), vehicle: saline with Tween-80
[7] = endpoint: mean survival time, dose: 75.0 mg/kg/injection, schedule: Q01DX001 (ip), vehicle: saline
[8] = endpoint: mean survival time, dose: 150.0 mg/kg/injection, schedule: Q01DX001 (ip), vehicle: saline
[9] = endpoint: mean survival time, dose: 50.0 mg/kg/injection, schedule: Q01DX009 (ip), vehicle: Klucel (hydroxypropylcellulose) (HPC)
[10] = endpoint: mean survival time, dose: 100.0 mg/kg/injection, schedule: Q01DX009 (ip), vehicle: Klucel (hydroxypropylcellulose) (HPC)
[11] = endpoint: mean survival time, dose: 100.0 mg/kg/injection, schedule: Q04DX003 (ip), vehicle: saline
[12] = endpoint: mean survival time, dose: 200.0 mg/kg/injection, schedule: Q04DX003 (ip), vehicle: saline
[13] = endpoint: mean survival time, dose: 400.0 mg/kg/injection, schedule: Q04DX003 (ip), vehicle: saline
[14] = endpoint: mean survival time, dose: 50.0 mg/kg/injection, schedule: Q01DX009 (ip), vehicle: saline with Tween-80
[15] = endpoint: mean survival time, dose: 100.0 mg/kg/injection, schedule: Q01DX001 (ip), vehicle: saline with Tween-80
[16] = endpoint: mean survival time, dose: 200.0 mg/kg/injection, schedule: Q01DX001 (ip), vehicle: saline with Tween-80
[17] = endpoint: mean survival time, dose: 400.0 mg/kg/injection, schedule: Q01DX001 (ip), vehicle: saline with Tween-80

Measured: T/C

Clc1ccc(C2SC=Cc3ccccc32)cc1 (stereo not drawn)
inactive: endpoint: median survival time, dose: 25.0 mg/kg/injection, schedule: Q01DX009 (ip), vehicle: Klucel (hydroxypropylcellulose) (HPC) 110 % of control | endpoint: median survival time, dose: 50.0 mg/kg/injection, schedule: Q01DX009 (ip), vehicle: Klucel (hydroxypropylcellulose) (HPC) 104 % of control | endpoint: median survival time, dose: 100.0 mg/kg/injection, schedule: Q01DX009 (ip), vehicle: Klucel (hydroxypropylcellulose) (HPC) 109 % of control | endpoint: median survival time, dose: 200.0 mg/kg/injection, schedule: Q01DX009 (ip), vehicle: Klucel (hydroxypropylcellulose) (HPC) 104 % of control

O=C1c2ccccc2C(=O)c2ccccc21
inactive: [1] 93 % of control | [2] 87 % of control | [3] 100 % of control | [4] 93 % of control | [5] 94 % of control | [6] 88 % of control

COc1c(O)c2c(c3cc(C(=O)N4CCc5c4c(O)c(OC)c4[nH]c(C(=O)N6CC7CC78C6=CC(=O)c6[nH]cc(C)c68)cc54)[nH]c13)CCN2C(N)=O (stereo not drawn)
inactive: endpoint: mean survival time, dose: 1.0 micrograms/kg/injection, schedule: Q01DX009 (ip), vehicle: other 116 % of control | endpoint: mean survival time, dose: 4.4 micrograms/kg/injection, schedule: Q04DX003 (ip), vehicle: other 106 % of control | endpoint: mean survival time, dose: 6.6 micrograms/kg/injection, schedule: Q04DX003 (ip), vehicle: other 104 % of control | endpoint: mean survival time, dose: 10.0 micrograms/kg/injection, schedule: Q04DX003 (ip), vehicle: other 116 % of control | endpoint: mean survival time, dose: 22.5 micrograms/kg/injection, schedule: Q04DX003 (ip), vehicle: other 122 % of control | endpoint: mean survival time, dose: 30.0 micrograms/kg/injection, schedule: Q01DX009 (ip), vehicle: other 124 % of control | endpoint: mean survival time, dose: 100.0 micrograms/kg/injection, schedule: Q04DX003 (ip), vehicle: other 101 % of control

Nc1cccc2sccc12
inactive: endpoint: mean survival time, dose: 100.0 mg/kg/injection, schedule: Q04DX003 (ip), vehicle: other 106 % of control | endpoint: mean survival time, dose: 200.0 mg/kg/injection, schedule: Q04DX003 (ip), vehicle: other 113 % of control | endpoint: mean survival time, dose: 400.0 mg/kg/injection, schedule: Q04DX003 (ip), vehicle: other 101 % of control

OCCN(CCO)c1ccc(O)cc1
inactive: endpoint: mean survival time, dose: 5.0 mg/kg/injection, schedule: Q01DX001 (ip), vehicle: saline 92 % of control | endpoint: mean survival time, dose: 10.0 mg/kg/injection, schedule: Q01DX001 (ip), vehicle: saline 92 % of control | endpoint: mean survival time, dose: 20.0 mg/kg/injection, schedule: Q01DX001 (ip), vehicle: saline 92 % of control | endpoint: mean survival time, dose: 40.0 mg/kg/injection, schedule: Q01DX001 (ip), vehicle: saline 92 % of control | [7] 103 % of control | [8] 101 % of control

N#Cc1ccccc1NC1OCC(O)C(O)C1O (stereo not drawn)
inactive: [1] 95 % of control | [3] 101 % of control | [5] 94 % of control

NC(=S)c1ncnc2c1ncn2C1OC(CO)C(O)C1O (stereo not drawn)
inactive: endpoint: median survival time, dose: 8.75 mg/kg/injection, schedule: Q01DX005 (ip), vehicle: water 103 % of control | endpoint: median survival time, dose: 17.5 mg/kg/injection, schedule: Q01DX005 (ip), vehicle: water 103 % of control and 107 % of control | endpoint: median survival time, dose: 35.0 mg/kg/injection, schedule: Q01DX005 (ip), vehicle: water 120 % of control and 111 % of control | endpoint: median survival time, dose: 70.0 mg/kg/injection, schedule: Q01DX005 (ip), vehicle: water 122 % of control and 124 % of control

Nc1ccc2c(c1)-c1ccccc1C2O (stereo not drawn)
inactive: [2] 92 % of control | [4] 101 % of control | [6] 99 % of control

O=S(=O)(Nc1c2ccccc2c(NS(=O)(=O)c2ccccc2)c2ccccc12)c1ccccc1
inactive: endpoint: mean survival time, dose: 25.0 mg/kg/injection, schedule: Q01DX001 (ip), vehicle: saline sonified 96 % of control | endpoint: mean survival time, dose: 50.0 mg/kg/injection, schedule: Q01DX001 (ip), vehicle: saline sonified 90 % of control | endpoint: mean survival time, dose: 100.0 mg/kg/injection, schedule: Q01DX001 (ip), vehicle: saline sonified 95 % of control

C1=Cc2ccccc2/C1=C/c1ccc(/C=C2\C=Cc3ccccc32)cc1
inactive: [1] 98 % of control | [3] 89 % of control | endpoint: mean survival time, dose: 700.0 mg/kg/injection, schedule: Q01DX009 (ip), vehicle: saline with Tween-80 89 % of control

CC1(CC(C)(C)C2CCCCC2)OCCO1
inactive: endpoint: mean survival time, dose: 25.0 mg/kg/injection, schedule: Q01DX009 (ip), vehicle: Klucel (hydroxypropylcellulose) (HPC) 93 % of control | [9] 95 % of control | [10] 91 % of control

Cc1ccc(C(CS(=O)(=O)c2ccc(C)cc2)c2ccccc2)cc1 (stereo not drawn)
inactive: [11] 93 % of control | [12] 93 % of control | [13] 98 % of control

O=C(/C=C/c1ccc(Cl)cc1)c1ccccc1
inactive: [9] 94 % of control | [10] 102 % of control | endpoint: mean survival time, dose: 200.0 mg/kg/injection, schedule: Q01DX009 (ip), vehicle: Klucel (hydroxypropylcellulose) (HPC) 105 % of control

O=C(O)/C(Br)=C/c1ccccc1
inactive: [14] 100 % of control | [1] 90 % of control | [2] 103 % of control | [3] 90 % of control | [4] 110 % of control | [6] 110 % of control

O=C(CC1(O)C(=O)Nc2ccccc21)c1c[nH]c2ccccc12 (stereo not drawn)
inactive: [14] 95 % of control | [1] 98 % of control | [3] 91 % of control

O=[N+]([O-])c1ccc(CSc2ncnc3c2ncn3C2OC(CO)C(O)C2O)cc1 (stereo not drawn)
inactive: endpoint: median survival time, dose: 0.1 mg/kg/injection, schedule: Q01DX009 (ip), vehicle: saline 100 % of control | endpoint: median survival time, dose: 1.0 mg/kg/injection, schedule: Q01DX009 (ip), vehicle: saline 105 % of control | endpoint: median survival time, dose: 10.0 mg/kg/injection, schedule: Q01DX009 (ip), vehicle: saline 107 % of control

COC1CC(C)OC(OC2C(C)/C=C/C(=O)OC(C)C(COC3OC(C)C(O)C(OC)C3OC)C3OC3/C=C/C(=O)C(C)(O)CC2C)C1O (stereo not drawn)
inactive: endpoint: mean survival time, dose: 125.0 mg/kg/injection, schedule: Q01DX001 (ip), vehicle: saline sonified 100 % of control | endpoint: mean survival time, dose: 250.0 mg/kg/injection, schedule: Q01DX001 (ip), vehicle: saline sonified 101 % of control | endpoint: mean survival time, dose: 500.0 mg/kg/injection, schedule: Q01DX001 (ip), vehicle: saline sonified 95 % of control

O=C(NC(CSSCC(NC(=O)OCc1ccccc1)C(=O)O)C(=O)O)OCc1ccccc1 (stereo not drawn)
inactive: endpoint: mean survival time, dose: 100.0 mg/kg/injection, schedule: Q01DX009 (ip), vehicle: other 95 % of control | endpoint: mean survival time, dose: 200.0 mg/kg/injection, schedule: Q01DX009 (ip), vehicle: other 95 % of control | endpoint: mean survival time, dose: 400.0 mg/kg/injection, schedule: Q01DX009 (ip), vehicle: other 98 % of control

CN1C(=O)/C(=C/c2cccs2)SC1=S
inactive: endpoint: mean survival time, dose: 100.0 mg/kg/injection, schedule: Q01DX001 (ip), vehicle: saline 95 % of control | endpoint: mean survival time, dose: 200.0 mg/kg/injection, schedule: Q01DX001 (ip), vehicle: saline 98 % of control | endpoint: mean survival time, dose: 400.0 mg/kg/injection, schedule: Q01DX001 (ip), vehicle: saline 103 % of control

CS(=O)(=O)OCCBr
inactive: endpoint: mean survival time, dose: 50.0 mg/kg/injection, schedule: Q04DX003 (ip), vehicle: saline 102 % of control

Cc1ccc(-[n+]2nscc2O)cc1
inactive: [7] 96 % of control | [8] 97 % of control | endpoint: mean survival time, dose: 300.0 mg/kg/injection, schedule: Q01DX001 (ip), vehicle: saline 92 % of control

Nc1ccc(Nc2c3ccccc3nc3ccccc23)cc1
inactive: endpoint: mean survival time, dose: 6.25 mg/kg/injection, schedule: Q04DX003 (ip), vehicle: saline 101 % of control | endpoint: mean survival time, dose: 12.5 mg/kg/injection, schedule: Q04DX003 (ip), vehicle: saline 111 % of control | endpoint: mean survival time, dose: 25.0 mg/kg/injection, schedule: Q04DX003 (ip), vehicle: saline 114 % of control

CCC(C=O)Cc1ccccc1 (stereo not drawn)
inactive: [2] 95 % of control | [4] 94 % of control | [6] 88 % of control

O=[N+]([O-])c1ccccc1C[P+](c1ccccc1)(c1ccccc1)c1ccccc1
inactive: endpoint: mean survival time, dose: 25.0 mg/kg/injection, schedule: Q04DX003 (ip), vehicle: saline with Tween-80 98 % of control | endpoint: mean survival time, dose: 50.0 mg/kg/injection, schedule: Q04DX003 (ip), vehicle: saline with Tween-80 114 % of control

CCC/C=N\O
inactive: [11] 110 % of control | [12] 93 % of control | [13] 100 % of control

O=c1c2ccccc2sc2ccc3c(ccc4sc5ccccc5c(=O)c43)c12
inactive: [15] 93 % of control | [16] 100 % of control | [17] 92 % of control

CCOc1c(NCCO)c2cc(Cl)ccc2oc1=O
inactive: [15] 95 % of control | [16] 87 % of control | [17] 97 % of control
